From patent publication US11987572B2, “Therapeutic compounds and methods of use thereof” (REGENTS OF THE UNIVERSITY OF MINNESOTA, priority 2019, dated 2024) come the findings set out here.

Where two headings read alike, the source gives them in different places.

Assay type in all cases: binding
The target in one test is T1, BRD4-D1 (Homo sapiens, UniProt O60885).
T1 construct: His6 BRD4 D1 were expressed and purified as reported by A. K. Urick; His6; made in house
Briefly: Fluorescence anisotropy competition with Fl-JQ1. Background: Fluorescence polarisation rises when a labelled molecule tumbles more slowly, as on binding a larger partner.

A further test addresses T2, His9-BRD4 D1 (Homo sapiens, UniProt O60885).
T2 construct: 7.5-60 nM for His9-tagged BRD4 D1; made in house; host or cells: E. coli BL21(DE3) with pRARE
Briefly: AlphaScreen assay with His9-BRD4 D1. The settings on record: mean of two technical replicates.

The next test addresses T3, p38α (Homo sapiens, UniProt Q16539).
T3 construct: phage display fusion; purchased Eurofins DiscoverX (Fremont California), KINOMEscan service
Briefly: p38 competitive inhibition assay (KINOMEscan, Eurofins DiscoverX). Particulars: mean of two biological replicates.

For a further test, the target named is T4, BRD4-D2 (Homo sapiens, UniProt O60885).
T4 construct: the second bromodomain of BRD4 (residues 333-460); host or cells: E. coli BL21 Star (DE3)
Briefly: Fluorescence anisotropy competition with Fl-JQ1.

[1] abbreviates: mean and SEM of three biological replicates, read-out: BRD4 D1 IC50 by FA.
[2] abbreviates: mean and standard deviation of three independent trials, read-out: IC50 BRD4-D1.

A word on the IC50: it is the concentration that gives 50% inhibition. A word on the Kd: it is the free concentration of one partner at which half of the binding sites on the other are occupied at equilibrium, for simple one-to-one binding.

T3 sequence (Q16539 whole entry, the tested form may be a part): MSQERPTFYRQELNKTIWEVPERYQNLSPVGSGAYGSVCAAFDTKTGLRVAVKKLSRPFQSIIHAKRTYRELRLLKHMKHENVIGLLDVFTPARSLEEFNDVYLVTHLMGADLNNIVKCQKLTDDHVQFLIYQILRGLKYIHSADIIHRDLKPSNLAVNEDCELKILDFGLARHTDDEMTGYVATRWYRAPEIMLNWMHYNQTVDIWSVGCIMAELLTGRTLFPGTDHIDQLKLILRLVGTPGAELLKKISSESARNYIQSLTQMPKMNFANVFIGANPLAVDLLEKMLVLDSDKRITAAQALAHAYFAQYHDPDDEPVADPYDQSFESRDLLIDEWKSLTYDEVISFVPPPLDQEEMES

For the molecule `Cc1cc(C)cc(Nc2nccc(-c3c(-c4ccc(C(F)(F)F)cc4)ncn3C3CCN(CCN(C)C)CC3)n2)c1`, the IC50 on BRD4-D1 (setting [1]) amounted to 0.15 ± 0.03 µM; at His9-BRD4 D1, 0.2 µM.

Take `Cc1cc(C)cc(Nc2nccc(-c3c(-c4ccc(Cl)cc4)ncn3C3CCN(C(=N)N)CC3)n2)c1`: the IC50 is 1.6 µM on BRD4-D1 (setting [1]) and 1.4 µM against His9-BRD4 D1.

With `Cc1cc(C)cc(Oc2nccc(-c3c(C4CC4)nnn3C3CCN(C(=N)N)CC3)n2)c1`, the IC50 on BRD4-D1 (setting [1]) turned out to be 61 ± 8.1 µM.

Turning to `Cc1cc(C)cc(Nc2nccc(-c3c(-c4ccc(F)cc4)nnn3C3CCNCC3)n2)c1`, the IC50 at BRD4-D1 (setting [1]) was above 100 µM. On p38α, this molecule yielded a Kd of 0.12 ± 0.051 µM.

On to `Cc1ccc(-c2ncn(C3CCNCC3)c2-c2ccnc(Nc3cc(C)cc(C)c3)n2)cc1`, for which the IC50 is 1.2 ± 0.2 µM at BRD4-D1 (setting [1]) and 1.1 µM against His9-BRD4 D1.

For `Cc1cc(Oc2cccc(-c3c(C)nnn3C3CCNCC3)n2)cc(C2CCCC2)c1` [drawing 253], the IC50 at BRD4-D1 (setting [1]) stood at 4.44 µM.

On to `Fc1ccc(-c2ncn(C3CCNCC3)c2-c2ccnc(Oc3cc(F)cc(F)c3)n2)cc1`, for which the IC50 at BRD4-D1 (setting [1]) is above 250 µM.

Take `Cc1cc(C)cc(Oc2cccc(-c3c(C)nnn3C3CCN(C(=N)N)CC3)c2)c1` [drawing 223]: at BRD4-D1 (setting [1]), the IC50 amounted to 12 ± 1.1 µM.

`Cc1cc(C)cc(Oc2ccnc(-c3c(C)nnn3C3CCN(C(=N)N)CC3)c2)c1` [drawing 227]: on BRD4-D1 (setting [1]), the IC50 is above 100 µM.

In the case of `Cc1cc(C)cc(Oc2nccc(-c3c(C(C)C)nnn3C3CCNCC3)n2)c1`, the IC50 at BRD4-D1 (setting [1]) is above 100 µM.

As for `Cc1ccc(Nc2nccc(-c3c(-c4ccc(F)cc4)ncn3C3CCNCC3)n2)cc1C`, the IC50 at BRD4-D1 (setting [1]) was 1.3 ± 0.2 µM.

The molecule `Cc1cc(Oc2cccc(-c3c(C)nnn3C3CCNCC3)n2)cc(C(C)C)c1` [drawing 251] yielded an IC50 against His9-BRD4 D1 of 4.76 µM.

Consider `CCCCc1cc(CCCC)cc(Oc2cccc(-c3c(C)nnn3C3CCNCC3)n2)c1` [drawing 259], for which the figures for the IC50 on BRD4-D1 (setting [1]) and on His9-BRD4 D1 were 8.61 µM and 27.7 µM, respectively.

In the case of `Cc1cc(C)cc(Nc2nccc(-c3c(-c4ccccc4)ncn3C3CCNCC3)n2)c1`, the IC50 on BRD4-D1 (setting [1]) was 4.5 ± 0.2 µM; at His9-BRD4 D1, 2.6 µM.

On to `CCCCc1cc(CCCC)cc(Oc2cccc(-c3c(C)nnn3C3CCNCC3)n2)c1` [drawing 195], for which the IC50 amounted to 8.61 µM on BRD4-D1 (setting [2]) and 27.7 µM on BRD4-D2.

For the molecule `CCC(C)c1cc(C)cc(Oc2cccc(-c3c(C)nnn3C3CCNCC3)n2)c1` (centres unmarked) [drawing 252], the figures for the IC50 on BRD4-D1 (setting [1]) and against His9-BRD4 D1 were 3.21 ± 0.3 µM and 7.35 µM, respectively.

On to `Cc1cc(C)cc(Nc2cccc(-c3c(C)nnn3C3CCN(C(=N)N)CC3)n2)c1`, for which, on BRD4-D1 (setting [1]), the IC50 turned out to be 4.5 ± 0.35 µM.

For `Cc1cc(C)cc(Oc2cc(-c3c(C)nnn3C3CCN(C(=N)N)CC3)ccn2)c1` [drawing 182], the IC50 at BRD4-D1 (setting [2]) came to 97 ± 2.6 µM.

Take `Cc1cc(Oc2cccc(-c3c(C)nnn3C3CCNCC3)n2)cc(C2CCCC2)c1` [drawing 189]: the values for the IC50 at BRD4-D1 (setting [2]) and on BRD4-D2 were 4.44 µM and 7.35 µM, respectively.

As to `CCCc1nnn(C2CCNCC2)c1-c1ccnc(Oc2cc(C)cc(C)c2)n1`, on BRD4-D1 (setting [1]), the IC50 was above 100 µM.

Consider `CC(=O)NCCN1CCC(n2cnc(-c3ccc(C(F)(F)F)cc3)c2-c2ccnc(Nc3cc(C)cc(C)c3)n2)CC1`, for which the IC50 on BRD4-D1 (setting [1]) is 0.42 ± 0.01 µM; against His9-BRD4 D1 it was 1.5 µM.

Take `Cc1cc(C)cc(Oc2nccc(-c3c(C)nnn3C3CCNCC3)n2)c1`: the 50% inhibitory concentration (IC50) at BRD4-D1 (setting [2]) was found to be 3.01 µM; on BRD4-D2, 5.87 µM.

Regarding `Cc1cc(C)cc(Oc2ccnc(-c3c(C)nnn3C3CCNCC3)c2)c1`, the IC50 on BRD4-D1 (setting [1]) was above 100 µM.

Consider `Cc1cc(C)cc(Oc2nccc(-c3c(C)nnn3C3CCN(C(=N)N)CC3)n2)c1` [drawing 222], for which the IC50 on BRD4-D1 (setting [1]) worked out at 9.7 ± 1.8 µM.

Regarding `Cc1cc(C)cc(Oc2cc(-c3c(C)nnn3C3CCN(C(=N)N)CC3)ccn2)c1` [drawing 225], the IC50 on BRD4-D1 (setting [1]) was 97 ± 2.6 µM.

For the molecule `Cc1nnn(C2CCNCC2)c1-c1cccc(Oc2cc(C3CCCCC3)cc(C3CCCCC3)c2)n1` [drawing 261], the IC50 on BRD4-D1 (setting [1]) worked out at 62.6 µM.

`Cc1cc(C)cc(Oc2nccc(-c3c(C)nnn3C3CCN(C(=N)N)CC3)n2)c1` [drawing 179]: the IC50 at BRD4-D1 (setting [2]) worked out at 9.7 ± 1.8 µM.

Turning to `Cc1cc(C)cc(Oc2cccc(-c3c(C)nnn3C3CCN(C(=N)N)CC3)c2)c1` [drawing 180], the IC50 at BRD4-D1 (setting [2]) was 12 ± 1.1 µM.

Take `Cc1cc(C)cc(Oc2cncc(-c3c(C)nnn3C3CCNCC3)c2)c1`: the IC50 at BRD4-D1 (setting [1]) is above 100 µM.

Consider `CCC(C)c1cc(C)cc(Oc2cccc(-c3c(C)nnn3C3CCNCC3)n2)c1` (centres unmarked) [drawing 188], for which the IC50 on BRD4-D1 (setting [2]) worked out at 3.21 ± 0.3 µM; at BRD4-D2, 7.35 µM.

In the case of `Cc1cc(C)cc(Oc2cccc(-c3c(-c4ccc(C(F)(F)F)cc4)ncn3C3CCN(CCN)CC3)n2)c1`, the 50% inhibitory concentration (IC50) came out at 1.1 ± 0.01 µM on BRD4-D1 (setting [1]) and 1.3 µM against His9-BRD4 D1. Moreover, the Kd at p38α was above 30 µM.

Regarding `Cc1cc(C)cc(Oc2cccc(-c3c(C)nnn3C3CCN(C(=N)N)CC3)n2)c1` [drawing 181], on BRD4-D1 (setting [2]), the half-maximal inhibitory concentration (IC50) stood at 3.6 ± 0.05 µM.

At BRD4-D2, `Cc1nnn(C2CCNCC2)c1-c1cccc(Oc2cc(C(F)(F)F)cc(C(F)(F)F)c2)n1` [drawing 199] came in with an IC50 of 45.6 µM.

For the molecule `Cc1cc(C)cc(Oc2cccc(-c3c(C)nnn3C3CCN(C(=N)N)CC3)n2)c1` [drawing 224], the IC50 at BRD4-D1 (setting [1]) amounted to 3.6 ± 0.05 µM.

For the molecule `Cc1cc(C)cc(Oc2cc(-c3c(C)nnn3C3CCNCC3)ccn2)c1`, the IC50 at BRD4-D1 (setting [1]) stood at 97 ± 2.6 µM.

As for `Cc1cc(C)cc(Oc2ccnc(-c3c(C)nnn3C3CCN(C(=N)N)CC3)c2)c1` [drawing 184], the IC50 at BRD4-D1 (setting [2]) was above 100 µM.

On His9-BRD4 D1, `Cc1nnn(C2CCNCC2)c1-c1cccc(Oc2cc(C(F)(F)F)cc(C(F)(F)F)c2)n1` [drawing 263] returned an IC50 of 45.6 µM.

For the molecule `Cc1nnn(C2CCNCC2)c1-c1cccc(Oc2cc(C3CCCCC3)cc(C3CCCCC3)c2)n1` [drawing 197], the IC50 on BRD4-D1 (setting [2]) is 62.6 µM.

Turning to `Cc1cc(C)cc(Nc2nccc(-c3c(CO)nnn3C3CCNCC3)n2)c1`, at His9-BRD4 D1, the midpoint of inhibition, the IC50, lay at 160 µM.

Consider `Cc1cc(C)cc(Nc2cccc(-c3c(C)nnn3C3CCNCC3)n2)c1`, for which the IC50 on BRD4-D1 (setting [1]) is 4.5 ± 0.35 µM. Besides, the Kd on p38α is above 0.025 µM.

As for `Cc1cc(Oc2cccc(-c3c(C)nnn3C3CCNCC3)n2)cc(C(C)C)c1` [drawing 187], the IC50 on BRD4-D2 was 4.76 µM.
